In assay [1] the target is T1, Carbonic anhydrase 9 (Homo sapiens, UniProt Q16790).
Description: Inhibition of human carbonic anhydrase 9 incubated for 15 mins prior to testing by stopped flow CO2 hydration assay
The target in another assay is Carbonic anhydrase 2 (Homo sapiens, UniProt P00918). Kind of assay: Inhibition of human carbonic anhydrase 2 incubated for 15 mins prior to testing by stopped flow CO2 hydration assay.
Assay [2] has as its target T1, Carbonic anhydrase 9. Kind of assay: Activation of human carbonic anhydrase 9 incubated for 15 mins prior to testing by stopped flow CO2 hydration assay.
In another assay the target is Carbonic anhydrase 1 (Homo sapiens, UniProt P00915). Nature of the assay: Inhibition of human carbonic anhydrase 1 incubated for 15 mins prior to testing by stopped flow CO2 hydration assay.
Sequence of Carbonic anhydrase 1 (P00915 whole entry): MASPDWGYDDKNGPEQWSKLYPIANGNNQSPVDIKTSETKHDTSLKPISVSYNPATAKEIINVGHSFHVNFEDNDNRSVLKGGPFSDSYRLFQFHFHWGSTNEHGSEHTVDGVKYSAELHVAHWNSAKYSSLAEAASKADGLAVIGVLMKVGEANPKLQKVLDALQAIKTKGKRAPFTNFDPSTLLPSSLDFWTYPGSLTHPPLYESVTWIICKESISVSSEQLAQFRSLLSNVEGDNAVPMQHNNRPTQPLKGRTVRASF

Each structure is given as a SMILES string. A value given as a limit tells only on which side of the number the result lay.

Consider `CCNC(=S)NNC(=O)c1ccccc1O`, for which the Ki at Carbonic anhydrase 9 [1] is 878 nM; on Carbonic anhydrase 2, more than 10 µM.

Consider `O=C(NNC(=S)NCc1ccccc1)c1ccccc1O`, for which the Ki is 980 nM on Carbonic anhydrase 9 [1] and more than 10 µM on Carbonic anhydrase 2.

At Carbonic anhydrase 9 [1], `O=C(NNC(=S)NCc1ccccc1)c1ccncc1` displayed a Ki of 964 nM. Further, on Carbonic anhydrase 9 [2], the Activity amounted to 0.81 µM.

Take `Cc1ccc(NC(=S)NNC(=O)c2ccncc2)cc1`: affinity on Carbonic anhydrase 9 [1] was put at a Ki of 1120 nM. On Carbonic anhydrase 9 [2], this molecule had an Activity of 2.57 µM.

As for `O=C(NNC(=S)Nc1ccccc1)c1ccncc1`, the inhibition constant Ki at Carbonic anhydrase 9 [1] stood at 317 nM; at Carbonic anhydrase 1, 34.1 nM. The molecule further registered an Activity on Carbonic anhydrase 9 [2] of 1.42 µM.

At Carbonic anhydrase 2, `Cc1ccc(NC(=S)NNC(=O)c2ccccc2O)cc1` showed a Ki of more than 10 µM.

For the molecule `C=CCNC(=S)NNC(=O)c1ccncc1`, the Ki stood at 970 nM on Carbonic anhydrase 9 [1] and 871 nM on Carbonic anhydrase 1. In addition, the Activity at Carbonic anhydrase 9 [2] worked out at 12.3 µM.

As for `NC(=S)NNC(=O)c1ccccc1O`, the Ki on Carbonic anhydrase 9 [1] was 1010 nM; at Carbonic anhydrase 2, more than 10 µM.

With `O=C(NNC(=S)Nc1ccccc1)c1ccccc1O`, the Ki is 1220 nM at Carbonic anhydrase 9 [1] and more than 10 µM at Carbonic anhydrase 2.

The molecule `NC(=S)NNC(=O)c1ccncc1` came in with an Activity at Carbonic anhydrase 9 [2] of 3.61 µM.

In the case of `C=CCNC(=S)NNC(=O)c1ccccc1O`, the figures for the Ki on Carbonic anhydrase 9 [1] and at Carbonic anhydrase 2 were 760 nM and more than 10 µM, respectively.

As to `CCN=C(S)NNC(=O)c1ccncc1`, the Ki is 884 nM at Carbonic anhydrase 9 [1] and 96.9 nM at Carbonic anhydrase 1. Further, the Activity on Carbonic anhydrase 9 [2] came out at 12.5 µM.

These data come from ChEMBL document CHEMBL3632486, “Interaction of carbonic anhydrase isozymes I, II, and IX with some pyridine and phenol hydrazinecarbothioamide derivatives” (Bioorg Med Chem Lett, 2015).
